According to EP4610269A1, “UROKINASE PLASMINOGEN ACTIVATOR SURFACE RECEPTOR (UPAR) LIGANDS FOR DIAGNOSTIC OR THERAPEUTIC USE” (3B Pharmaceuticals GmbH, priority 2024, dated 2025):
Read-outs that look alike come from different tables or passages of the source. Where a SMILES comes first, the peptide text is derived from it. Bridges are numbered along the chain shown (N, C = ends). [ ]: non-standard residue; d: D form. The star is where a group is joined. GdDOTA = Gd(III) DOTA conjugate, O=C([O-])CN1CCN(CC(=O)[O-])CCN(CC(=O)*)CCN(CC(=O)[O-])CC1.[Gd+3]; DOTA = O=C(O)CN1CCN(CC(=O)O)CCN(CC(=O)*)CCN(CC(=O)O)CC1; Pro(trans-4-F) = O=C(O)[C@@H]1C[C@@H](F)CN1; Pro(cis-4-F) = O=C(O)[C@@H]1C[C@H](F)CN1; Dopa = N[C@@H](Cc1ccc(O)c(O)c1)C(=O)O; Hyp = O=C(O)[C@@H]1C[C@@H](O)CN1; dCit = NC(=O)NCCC[C@@H](N)C(=O)O; Pentanoyl(4-Me) = CC(C)CCC(=O)*; Cit = NC(=O)NCCC[C@H](N)C(=O)O; Butoxycarbonyl = CCCCOC(=O)*; Nva = CCC[C@H](N)C(=O)O; Pentanoyl = CCCCC(=O)*

Columns and labels:
[1] = target: T1, uPAR-expressing HEC-265 human endometrial adenocarcinoma cells (Homo sapiens, UniProt Q03405); test: Competitive FACS binding assay; conditions: pIC50 category of FACS binding
T1 construct: Cell surface uPAR-expressing HEC-265 human endometrial adenocarcinoma cells; host or cells: HEC-265
In short: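 Competitive displacement of a 10 nM biotinylated peptide from HEC-265 cells (1 h, 4 °C, PBS/1% BSA), detected via APC-streptavidin by flow cytometry. pIC50 from four-parameter logistic fit of median fluorescence versus concentration.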

[2] = target: T2, Recombinant soluble human NEP (Homo sapiens, UniProt P08473); test: Proteolytic stability assay against NEP; format: in vitro ADME; conditions: human NEP 100 ng/mL, compound 10 µM, 37°C, LC-MS quantification; for remaining at 24 h, 10 µM: recombinant soluble human NEP, read-out: % intact compound remaining after 24h incubation
T2 construct: Recombinant soluble human NEP; purchased BioTechne, Wiesbaden, Germany
Method: To assess the stability of compounds against NEP, the compounds were subjected to an in vitro assay based on the protocol described by Edelson et al. (Edelson, Makhlina et al. 2013).
Recombinant soluble human NEP (BioTechne, Wiesbaden, Germany) at a concentration of 100 ng/mL was mixed with the compound (10 µM) and a stable internal standard (10 µM) and incubated at 37°C. After several time points, samples were taken and analyzed with LC-MS.
The determination of the analyte in the clean sample solutions was performed on an Agilent 1290 UHPLC system coupled to an Agilent 6530 Q-TOF mass spectrometer. The chromatographic separation was carried out on a Phenomenex BioZen XB-C18 HPLC column (50 × 2 mm, 1.7 µm particle size) with gradient elution using a mixture of 0.1% formic acid in water as eluent A and acetonitrile as eluent B (2% B to 41% in 7 min, 800 µl/min, 40°C). Mass spectrometric detection was performed in positive ion ESI mode by scanning the mass range from m/z 50 to 3000 with a sampling rate of 2 / sec.
(§1) From the mass spectrometric raw data the ion currents for the double or triple charged monoisotopic signal was extracted for both, the compound and the internal standard.
(§2) Quantitation was performed by external matrix calibration with internal standard using the integrated analyte signals.
The activity of NEP was examined using a commercially available chromogenic substrate of NEP.
(§3) The result is stated as "% intact compound remaining after 24 h incubation" and means that from the amount of material at the start of the experiment the stated percentage is detected as unchanged material at the end of the experiment by LC-MS quantification. Since all compounds are more than 50% intact after 24 h they are considered as stable enough for diagnostic and therapeutic applications. Table 14: Results of the NEP stability assay

human uPAR (uPAR-Fc) = target: T3, human uPAR (uPAR-Fc) (Homo sapiens, UniProt Q03405); test: Surface plasmon resonance (SPR) assay, single cycle kinetics; format: binding; conditions: pKD category for uPAR SPR activity assay, uPAR-Fc on Protein A-Chip, 25°C, read-out: pKD CAT (converted)
T3 construct: comprising amino acids Leu23-Arg303 according to UniProt entry Q03405.1; purchased R&D Systems 10378-UK-100
In short: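 uPAR-Fc (Leu23-Arg303 extracellular domains, human IgG1 Fc) captured on Protein A chip to ~2000 RU; single-cycle kinetics at 25°C in HEPES running buffer pH 7.4 with 0.1% DMSO. KD from double-referenced sensorgrams fitted to 1:1 Langmuir model, reported as pKD.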

[3] = Plasma stability assay (human plasma); format: in vitro ADME; conditions: human plasma (sodium citrate 3.7%), 37°C, LC-MS quantification, read-out: % intact compound remaining after 6h incubation Human plasma
Method: (§4) In order to determine the stability of selected compounds of the invention in human and mouse plasma, a plasma stability assay was carried out. Such plasma stability assay measures degradation of compounds of the present invention in blood plasma. This is an important characteristic of a compound as compounds, with the exception of pro-drugs, which rapidly degrade in plasma, generally show poor in vivo efficacy. […] The stability is sufficient for the diagnostic, therapeutic and theragnostic use of these compounds according to the present invention.
(§5) The plasma stability samples were prepared by spiking 50 µl plasma aliquots (all sodium citrate 3.7%) with 1 µl of a 0.5 mM compound stock solution in DMSO. After vortexing the samples were incubated in a Thermomixer at 37°C for 0 and 6 hours. After incubation the samples were stored on ice until further treatment. All samples were prepared in duplicates.
A suitable internal standard was added to each sample (1 µl of a 0.5 mM stock solution in DMSO). Protein precipitation was performed using two different methods depending on the compound conditions as indicated in Table 13. • A) 250 µl of acetonitrile containing 1% trifluoroacetic acid was added. […]
as §2
(§6) Additionally, recovery was determined by spiking a pure plasma sample that only contained the internal standard after treatment with a certain amount of the compound.
(§7) Carry-over was evaluated by analysis of a blank sample (20% acetonitrile) after the highest calibration sample.
The result is stated as "% intact compound remaining after 6 h incubation" and means that from the amount of material at the start of the experiment the stated percentage is detected as unchanged material at the end of the experiment by LC-MS quantification. […]

[4] = Plasma stability assay (mouse plasma); format: in vitro ADME; conditions: 37°C, LC-MS quantification; for remaining at 6 h, 9.8 µM: mouse plasma (sodium citrate 3.7%), read-out: % intact compound remaining after 6h incubation Mouse plasma
Method: as §4, §5
A suitable internal standard was added to each sample (1 µl of a 0.5 mM stock solution in DMSO). Protein precipitation was performed using two different methods depending on the compound conditions as indicated in Table 13. • A) 250 µl of acetonitrile containing 1% trifluoroacetic acid was added. After incubation at room temperature for 30 min the precipitate was separated by centrifugation and 150 µl of the supernatant was diluted with 150 µl of 1% aqueous formic acid. • B) 150 µl of a zinc sulphate precipitation agent containing 78% 0.1 M zinc sulphate and 22% acetonitrile was added. After incubation at room temperature for 30 min the precipitate was separated by centrifugation. To 100 µl of the supernatant 10 µl of 1% formic acid was added followed by further incubation at 60°C for 10 min to complete the formation of the zinc chelate, if the compound contains a free DOTA moiety.
The determination of the analyte in the clean sample solutions was performed on an Agilent 1290 UHPLC system coupled to an Agilent 6530 Q-TOF mass spectrometer. The chromatographic separation was carried out on a Phenomenex BioZen XB-C18 HPLC column (50 x 2 mm, 1.7 µm particle size).
Two different elution gradients were applied using a mixture of 0.1% formic acid in water as eluent A and acetonitrile as eluent B: • A) 2% B to 41% in 7 min, 800 µl/min, 40°C. • B) 5% B to 50% B in 6 min, 800 µL/min, 40°C.
Mass spectrometric detection was performed in positive ion ESI mode by scanning the mass range from m/z 50 to 3000 with a sampling rate of 2 / sec.
as §1, §2, §6, §7
as §3, with “6” for “24”, “13:” for “14:”, “plasma” for “NEP”

T1 sequence (Q03405 23-335): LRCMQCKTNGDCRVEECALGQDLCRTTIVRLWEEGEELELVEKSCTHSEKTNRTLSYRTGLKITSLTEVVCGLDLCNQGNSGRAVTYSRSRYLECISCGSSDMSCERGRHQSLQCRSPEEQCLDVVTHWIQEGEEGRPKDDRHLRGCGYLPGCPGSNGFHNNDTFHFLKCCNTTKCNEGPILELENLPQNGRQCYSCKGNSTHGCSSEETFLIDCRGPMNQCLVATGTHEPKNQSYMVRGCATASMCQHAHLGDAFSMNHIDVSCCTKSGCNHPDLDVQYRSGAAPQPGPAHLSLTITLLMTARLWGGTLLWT
T2 sequence (P08473 52-750 limits assumed): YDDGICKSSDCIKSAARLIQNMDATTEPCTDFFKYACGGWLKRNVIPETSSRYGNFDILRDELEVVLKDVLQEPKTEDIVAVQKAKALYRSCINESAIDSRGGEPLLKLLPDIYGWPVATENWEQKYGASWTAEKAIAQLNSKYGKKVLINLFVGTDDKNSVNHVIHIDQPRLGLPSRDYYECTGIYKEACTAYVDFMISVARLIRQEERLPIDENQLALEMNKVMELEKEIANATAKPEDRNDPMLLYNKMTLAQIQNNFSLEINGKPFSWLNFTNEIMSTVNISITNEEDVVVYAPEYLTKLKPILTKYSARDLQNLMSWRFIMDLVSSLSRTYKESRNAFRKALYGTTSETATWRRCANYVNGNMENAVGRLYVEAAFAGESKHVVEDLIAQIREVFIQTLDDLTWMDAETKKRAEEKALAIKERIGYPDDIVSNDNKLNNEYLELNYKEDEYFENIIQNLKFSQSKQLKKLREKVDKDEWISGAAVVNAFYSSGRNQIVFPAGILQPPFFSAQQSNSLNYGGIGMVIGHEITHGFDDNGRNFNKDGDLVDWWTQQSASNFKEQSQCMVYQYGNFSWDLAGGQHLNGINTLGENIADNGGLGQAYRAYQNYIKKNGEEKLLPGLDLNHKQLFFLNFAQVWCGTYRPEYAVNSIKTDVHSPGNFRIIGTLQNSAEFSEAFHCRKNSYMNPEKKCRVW
T3 sequence (Q03405 23-303): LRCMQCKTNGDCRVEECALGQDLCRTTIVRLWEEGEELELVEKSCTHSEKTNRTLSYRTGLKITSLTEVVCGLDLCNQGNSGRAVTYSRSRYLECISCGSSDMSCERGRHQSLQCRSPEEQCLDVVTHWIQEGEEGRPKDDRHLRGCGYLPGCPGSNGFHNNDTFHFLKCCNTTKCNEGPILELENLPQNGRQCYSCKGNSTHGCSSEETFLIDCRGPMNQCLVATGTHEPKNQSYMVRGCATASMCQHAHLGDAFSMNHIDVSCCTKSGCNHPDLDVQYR

IC50 [1] [nM]	remaining at 24 h, 10 µM [2] [%]	Kd (human uPAR (uPAR-Fc)) [nM]	Kd (human uPAR (uPAR-Fc); single cycle kinetics) [nM]	Compound	remaining at 6 h, 9.8 µM [3] [%]	remaining at 6 h, 9.8 µM [4] [%]	pIC50 CAT [1]	% intact compound remaining after 24h incubation [2] [%]	% intact compound remaining after 6h incubation Mouse plasma ([4]; mouse plasma (sodium citrate)) [%]
≤ 10	89	< 1.58		CCCCC(=O)N[C@H]1CSSC[C@@H](C(N)=O)NC(=O)[C@H](CCC)NC(=O)[C@H]([C@@H](C)CC)NC(=O)[C@@H]2C[C@@H](F)CN2C(=O)[C@@H]2CCCN2C(=O)[C@H](Cc2ccccc2)NC(=O)[C@H](Cc2ccc(O)cc2)NC(=O)[C@H](CCCCNC(=O)CN2CCN(CC(=O)O)CCN(CC(=O)O)CCN(CC(=O)O)CC2)NC(=O)[C@H](CCCNC(N)=O)NC1=O [UPAR-246, Pent-[Cys-Cit-Lys(DOTA)-Tyr-Phe-Pro-4Tfp-Ile-Nva-Cys]-NH2] (Pentanoyl-C[Cit]K(DOTA)YFP[Pro(trans-4-F)]I[Nva]C-NH2; disulfide 1-10)					
≤ 10	> 95		< 1.58	CC[C@H](C)[C@@H]1NC(=O)[C@@H]2CCCN2C(=O)[C@@H]2CCCN2C(=O)[C@H](Cc2ccccc2)NC(=O)[C@H](Cc2ccc(O)cc2)NC(=O)[C@H](CCC(N)=O)NC(=O)[C@H](CCCCNC(=O)CN2CCN(CC(=O)O)CCN(CC(=O)O)CCN(CC(=O)O)CC2)NC(=O)[C@@H](NC(=O)CCC(C)C)CSSC[C@@H](C(N)=O)NC(=O)[C@H](CC(C)C)NC1=O [UPAR-466, iHex-[Cys-Lys(DOTA)-Gln-Tyr-Phe-Pro-Pro-Ile-Leu-Cys]-NH2] ({Pentanoyl(4-Me)}-CK(DOTA)QYFPPILC-NH2; disulfide 1-10)					
≥ 126	> 95		> 100	CC[C@H](C)[C@@H]1NC(=O)[C@@H](C)NC(=O)[C@@H]2CCCN2C(=O)[C@H](Cc2ccccc2)NC(=O)[C@H](Cc2ccc(O)cc2)NC(=O)[C@H](CCC(N)=O)NC(=O)[C@@H](CCCNC(N)=O)NC(=O)[C@@H](NC(=O)CCC(C)C)CSSC[C@@H](C(N)=O)NC(=O)[C@H](CC(C)C)NC1=O [UPAR-364, iHex-[Cys-cit-Gln-Tyr-Phe-Pro-ala-Ile-Leu-Cys]-NH2] ({Pentanoyl(4-Me)}-C[dCit]QYFP[dA]ILC-NH2; disulfide 1-10)					

The next lines start with the compound.

Compound	IC50 [1] [nM]	remaining at 24 h, 10 µM [2] [%]	Kd (human uPAR (uPAR-Fc)) [nM]	Kd (human uPAR (uPAR-Fc); single cycle kinetics) [nM]	remaining at 6 h, 9.8 µM [3] [%]	remaining at 6 h, 9.8 µM [4] [%]	pIC50 CAT [1]	% intact compound remaining after 24h incubation [2] [%]	% intact compound remaining after 6h incubation Mouse plasma ([4]; mouse plasma (sodium citrate)) [%]
CCCCOC(=O)N[C@H]1CSSC[C@@H](C(N)=O)NC(=O)[C@H](CCC)NC(=O)[C@H]([C@@H](C)CC)NC(=O)[C@@H]2C[C@@H](O)CN2C(=O)[C@@H]2C[C@H](F)CN2C(=O)[C@H](Cc2ccccc2)NC(=O)[C@H](Cc2ccc(O)c(O)c2)NC(=O)[C@H](CCCCNC(=O)CN2CCN(CC(=O)O)CCN(CC(=O)O)CCN(CC(=O)O)CC2)NC(=O)[C@H]([C@@H](C)O)NC1=O [UPAR-249, Butoc-[Cys-Thr-Lys(DOTA)-Dopa-Phe-4Cfp-Hyp-Ile-Nva-Cys]-NH2] (Butoxycarbonyl-CTK(DOTA)[Dopa]F[Pro(cis-4-F)][Hyp]I[Nva]C-NH2; disulfide 1-10)	≤ 10		< 1.58		64	22			
CCCCC(=O)N[C@H]1CSSC[C@@H](C(N)=O)NC(=O)[C@H](CCC)NC(=O)[C@H]([C@@H](C)CC)NC(=O)[C@@H]2C[C@@H](O)CN2C(=O)[C@@H]2CCCN2C(=O)[C@H](Cc2ccccc2)NC(=O)[C@H](Cc2ccc(O)cc2)NC(=O)[C@H](CCCCNC(=O)CN2CCN(CC(=O)O)CCN(CC(=O)O)CCN(CC(=O)O)CC2)NC(=O)[C@H]([C@@H](C)O)NC1=O [UPAR-301, Pent-[Cys-Thr-Lys(DOTA)-Tyr-Phe-Pro-Hyp-Ile-Nva-Cys]-NH2] (Pentanoyl-CTK(DOTA)YFP[Hyp]I[Nva]C-NH2; disulfide 1-10)	≤ 10		< 1.58		> 95	91			
iHex-[Cys-Cit-Lys(GdDOTA)-Tyr-Phe-Pro-ala-Ile-Leu-Cys]-NH2 ({Pentanoyl(4-Me)}-C[Cit]K(GdDOTA)YFP[dA]ILC-NH2; disulfide 1-10 (inferred); not fully specified) [UPAR-463]							A (pIC50 values ≥8.0)	88	81
